Legend:
Mouse [1] = test: concentration in plasma after dosing; conditions: dosed: 2,4-Dichlorophenoxyacetic acid, 1.0 mg/kg, oral, Male, B6C3F1
Mouse [2] = test: concentration in plasma after dosing; conditions: dosed: 2,4-Dichlorophenoxyacetic acid, 5.2 mg/kg, oral, Male, B6C3F1
Rat [3] = test: concentration in plasma after dosing; conditions: dosed: 2-Hydroxy-4-methoxybenzophenone, 250 mg/kg, oral, Male, F344
Rat [4] = test: concentration in plasma after dosing; conditions: 10 min; dosed: 2-Hydroxy-4-methoxybenzophenone; 100 mg/kg; oral; Male; F344
Rat [5] = test: concentration in plasma after dosing; conditions: dosed: 2-Hydroxy-4-methoxybenzophenone, 100 mg/kg, oral, Male, F344
Mouse [6] = test: concentration in plasma after dosing; conditions: 3 h; dosed: 2-Hydroxy-4-methoxybenzophenone; 50 mg/kg; iv; Male; B6C3F1
Mouse [7] = test: concentration in plasma after dosing; conditions: 10 min; dosed: 2-Hydroxy-4-methoxybenzophenone; 250 mg/kg; oral; Male; B6C3F1
Mouse [8] = test: concentration in plasma after dosing; conditions: 3 h; dosed: 2-Hydroxy-4-methoxybenzophenone; 250 mg/kg; oral; Male; B6C3F1
Mouse [9] = test: concentration in plasma after dosing; conditions: 2 h; dosed: 2-Hydroxy-4-methoxybenzophenone; 250 mg/kg; oral; Female; B6C3F1
Rat [10] = test: concentration in plasma after dosing; conditions: dosed: Methyleugenol, 37 mg/kg, iv, Female, F344
Rat [11] = test: concentration in plasma after dosing; conditions: dosed: Methyleugenol, 37 mg/kg, oral, Male, F344/N
Rat [12] = test: concentration in brain after dosing; conditions: 24 h; dosed: Perfluorohexane-1-sulphonic acid – potassium salt; 16 mg/kg; oral; Female; Harlan Sprague Dawley
Rat [13] = test: concentration in liver after dosing; conditions: 24 h; dosed: Perfluorohexane-1-sulphonic acid – potassium salt; 16 mg/kg; oral; Female; F344
Rat [14] = test: concentration in brain after dosing; conditions: 3 h; dosed: Perfluorohexane-1-sulphonic acid – potassium salt; 16 mg/kg; oral; Female; Harlan Sprague Dawley
Rat [15] = test: concentration in kidney after dosing; conditions: 6 h; dosed: Perfluorohexane-1-sulphonic acid – potassium salt; 16 mg/kg; oral; Female; Harlan Sprague Dawley
Rat [16] = test: concentration in kidney after dosing; conditions: 1200 h; dosed: Perfluorohexane-1-sulphonic acid – potassium salt; 16 mg/kg; oral; Male; Harlan Sprague Dawley
Rat [17] = test: concentration in kidney after dosing; conditions: 12 h; dosed: Perfluorohexane-1-sulphonic acid – potassium salt; 16 mg/kg; oral; Female; F344
Rat [18] = test: concentration in plasma after dosing; conditions: dosed: Perfluorohexane-1-sulphonic acid – potassium salt, 4 mg/kg, oral, Male, F344
Rat [19] = test: concentration in kidney after dosing; conditions: 24 h; dosed: Perfluorohexane-1-sulphonic acid – potassium salt; 16 mg/kg; oral; Female; F344
Rat [20] = test: concentration in plasma after dosing; conditions: 0.5 h; dosed: Primidone; 130 mg/kg; oral; Male; Harlan Sprague Dawley
Rat [21] = test: concentration in plasma after dosing; conditions: 3 h; dosed: Primidone; 130 mg/kg; oral; Male; Harlan Sprague Dawley
Rat [22] = test: concentration in plasma after dosing; conditions: 6 h; dosed: Primidone; 130 mg/kg; oral; Female; F344
Rat [23] = test: concentration in plasma after dosing; conditions: 0.25 h; dosed: Pyridine; 10 mg/kg; iv; Male; F344
Rat [24] = test: concentration in plasma after dosing; conditions: 10 min; dosed: Pyridine; 10 mg/kg; oral; Male; F344
Rat [25] = test: concentration in plasma after dosing; conditions: dosed: Pyridine, 25 mg/kg, oral, Female, Harlan Sprague-Dawley
Rat [26] = test: concentration in brain after dosing; conditions: 3 h; dosed: alpha-Thujone; 25 mg/kg; oral; Male; Harlan Sprague Dawley
Rat [27] = test: concentration in brain after dosing; conditions: 10 min; dosed: alpha-Thujone; 25 mg/kg; oral; Male; Harlan Sprague Dawley
Rat [28] = test: concentration in brain after dosing; conditions: 3 h; dosed: alpha-Thujone; 25 mg/kg; oral; Female; Harlan Sprague Dawley
Rat [29] = test: concentration in brain after dosing; conditions: 1.5 h; dosed: alpha-Thujone; 50 mg/kg; oral; Male; Harlan Sprague Dawley
Rat [30] = test: concentration in brain after dosing; conditions: 3 h; dosed: alpha-Thujone; 50 mg/kg; oral; Female; Harlan Sprague Dawley
Rat [31] = test: concentration in plasma after dosing; conditions: 2 min; dosed: alpha-Thujone; 50 mg/kg; oral; Female; Harlan Sprague Dawley
Rat [32] = test: concentration in plasma after dosing; conditions: 0.5 h; dosed: alpha-Thujone; 50 mg/kg; oral; Male; Harlan Sprague Dawley
Rat [33] = test: concentration in plasma after dosing; conditions: 12 h; dosed: alpha-Thujone; 50 mg/kg; oral; Female; Harlan Sprague Dawley
Rat [34] = test: concentration in plasma after dosing; conditions: 2 min; dosed: alpha-Thujone; 25 mg/kg; oral; Male; Harlan Sprague Dawley
Rat [35] = test: concentration in plasma after dosing; conditions: 10 min; dosed: alpha-Thujone; 25 mg/kg; oral; Male; Harlan Sprague Dawley

O=C(O)COc1ccc(Cl)cc1Cl [2,4-Dichlorophenoxyacetic acid]
concentration in plasma [µg/mL]
Conditions | 0.25 h | 0.5 h | 2 h | 3 h | 4 h | 5 min | 6 h | 8 h | 10 min
Mouse [1] | 3.93 | 3.06 | 1.79 | 0.99 | – | 3.89 | 0.324 | 0.161 | 4.27
Mouse [2] | 12.3 | 19.7 | 9.63 | 13.4 | 13.3 | 6.51 | 4.31 | – | –

O=C(c1ccccc1)c1ccc(O)cc1O [2,4-Dihydroxybenzophenone]
concentration in plasma [µg/mL]
Conditions | 0.25 h | 0.5 h | 4 h | 10 h
Rat [3] | – | 0.256 | – | 0.0668
Rat [5] | 0.091 | – | 0.0438 | –

Conditions | concentration in plasma [µg/mL]
Mouse [6] | 0.202
Mouse [7] | 0.392
Mouse [8] | 0.371
Mouse [9] | 0.19
Rat [4] | 0.091

C=CCc1ccc(OC)c(OC)c1 [Methyleugenol]
concentration in plasma [µg/mL]
Conditions | 0.25 h | 0.5 h | 1.5 h | 3 h
Rat [10] | 9.76 | – | 0.576 | –
Rat [11] | – | 0.293 | – | 0.0219

O=S(=O)([O-])C(F)(F)C(F)(F)C(F)(F)C(F)(F)C(F)(F)C(F)(F)F.[K+] [Perfluorohexane-1-sulphonic acid – potassium salt]
Conditions | concentration in brain [ng/g] | concentration in kidney [ng/g] | concentration in liver [ng/g]
Rat [12] | 701 | – | –
Rat [13] | – | – | 53400
Rat [14] | 1340 | – | –
Rat [15] | – | 36900 | –
Rat [16] | – | 2640 | –
Rat [17] | – | 37000 | –
Rat [19] | – | 43700 | –

Rat [18]
Conditions | concentration in plasma [ng/mL]
3 h | 29800
192 h | 18200
1200 h | 6240

CCC1(c2ccccc2)C(=O)NCNC1=O [Primidone]
Conditions | concentration in plasma [µg/mL]
Rat [20] | 55.8
Rat [21] | 108
Rat [22] | 58.4

c1ccncc1 [Pyridine]
Conditions | concentration in plasma [µg/mL]
Rat [23] | 4.51
Rat [24] | 4.95

Rat [25]
Conditions | concentration in plasma [µg/mL]
1 h | 21.1
8 h | 15.1

CC(C)[C@]12CC(=O)[C@H](C)[C@H]1C2 [alpha-Thujone]
Conditions | concentration in brain [ng/g] | concentration in plasma [ng/mL]
Rat [26] | 176 | –
Rat [27] | 2000 | –
Rat [28] | 556 | –
Rat [29] | 1800 | –
Rat [30] | 858 | –
Rat [31] | – | 33.6
Rat [32] | – | 2180
Rat [33] | – | 28.6
Rat [34] | – | 17.8
Rat [35] | – | 408

Reference: EPA's CvTdb concentration-time database
